Data taken from PMC5988692, “AZ304, a novel dual BRAF inhibitor, exerts anti-tumour effects in colorectal cancer independently of BRAF genetic status” (British Journal of Cancer, 2018).
pEC50, pIC50: −log10 of the molar value. Like-named read-outs stand apart in the source and are kept apart here.

How the values were obtained:
BRAF = BRAF (Homo sapiens, UniProt P15056); assay: AlphaScreen kinase assay (MEK1/2 phosphorylation); format: biochemical; conditions: wild type BRAF, ATP Km
Method: (§1) For RAF kinases, detailed assay information was described in ref.[18] Briefly, the kinase activity of BRAF WT, BRAF V600E, or CRAF was measured using an AlphaScreen assay (Perkin Elmer, MA) monitoring MEK1/2 phosphorylation at Ser217/221. For CDK2 and CDK4 kinases, activity was also measured by AlphaScreen, monitoring phosphorylation of biotin Rb peptide at Ser780. Similarly, MAP3K7, CSF1R and JAK2 kinase activity was measured by phosphorylation of their biotinylated substrates MKK6 kinase dead protein at Ser271/Thr275, or tyrosine phosphorylation of pEY or Tyk2 Tyr1054/1055 peptides, respectively. CSK, IGF1R, EGFR, FGFR1 and SRC kinase activity was measured using a sandwich ELISA detecting phosphorylated poly EAY peptide with a HRP conjugated phosphotyrosine antibody and TMB substrate, while p38 kinase activity was measured by monitoring phosphorylation of MBP protein with radiolabeled ^33P-ATP in a filter binding format. All assays were screened under respective ATP Km conditions and inhibitor IC50s were derived from either 5 (RAF kinases, CDK2, CDK4, MAP3K7, JAK2), 10 (CSK, IGF1R, EGFR, FGFR1, SRC) or 11 (p38, CSF1R) point compound dose response.

BRAFV600E = BRAFV600E (Homo sapiens, UniProt P15056, V600E); assay: AlphaScreen kinase assay (MEK1/2 phosphorylation); format: biochemical; conditions: ATP Km
Method: as §1

CSF1R = CSF1R (Homo sapiens, UniProt P07333); assay: AlphaScreen kinase assay; format: biochemical; conditions: ATP Km
Method: as §1

JAK2 = JAK2 (Homo sapiens, UniProt O60674); assay: AlphaScreen kinase assay; format: biochemical; conditions: ATP Km
Method: as §1

MAP3K7 = MAP3K7 (Homo sapiens, UniProt O43318); assay: AlphaScreen kinase assay; format: biochemical; conditions: ATP Km
Method: as §1

p-ERK in SK-MEL-31 cells = assay: SK-MEL-31 p-ERK cellular assay; format: cell-based; conditions: Homo sapiens, 1.25 h, read-out: EC50, reduction of p-ERK
A549 cells = assay: Western blot p-ERK and p-p38; format: cell-based, human
Method: (§2) For western-blotting in A375, A549 and MC-F7 cell lines, the detailed method was described in ref.[18] […] For western-blot in selected CRC cell lines, the cells were collected after treatment for indicated time and washed twice with cold PBS. Then cells were lysed in 1% Triton lysis buffer (50 mmol/L Tris-HCl, pH 7.4, 10 mmol/L EDTA, 100 mmol/L NaF, 150 mmol/L NaCl, 1% Triton X-100, 1 mmol/L PMSF 1 mmol/L Na3VO4 and 2 μg/mL aprotinin). After sonication and centrifugation, samples were quantified with the Lowry method. Next, all the protein samples were boiled at 95 °C for 5 min with 3× sampling buffer. After that, all the lysate samples were resolved by SDS polyacrylamide gel electrophoresis (SDS-PAGE) and followed by western blotting which means electronically transferred to nitrocellulose membranes. After blocking with 5% skim milk in TBST buffer (10 mM Tris-HCl pH 7.4, 150 mM NaCl, 0.1% Tween 20) at room temperature for 1 h, the blots were incubated with indicated antibodies shaking for 2 h, then overnight at 4 °C. Then the blots were washed four times with TBST buffer, and then incubated with secondary antibodies for 30 min at room temperature. After washing for another four times, the protein bands were detected with enhanced chemiluminescence reagent (SuperSignal Western Pico Chemiluminescent Substrate; Pierce, Rockford, IL, USA) and visualised with the Electrophoresis Gel Imaging Analysis System (DNR Bio-Imaging Systems, Jerusalem, Israel).
(§3) Cells were incubated with DMSO or AZ304 for 75 min and p-ERK levels were determined using a p-ERK antibody based ELISA. […] Cells were incubated with DMSO or AZ304 (±EGF) for 75 min and p-ERK levels were determined using a p-ERK antibody based ELISA. […] (A375: BRAF V600E, A549: RAS MT; MC-F7: BRAF/RAS WT)

MC-F7 cells = assay: Western blot p-ERK and p-p38; format: cell-based, human; conditions: MC-F7 (BRAF/RAS WT)
Method: as §2, §3

A375 cells = assay: Western blot p-p38; format: cell-based, human; conditions: A375 (BRAF V600E), 75 min
Method: as §2, with “After blocking with 5% skim milk in TBST buffer (10 mM Tris-HCl pH 7.4, 150 mM NaCl, 0.1% Tween 20) at room temperature for 1 h, the blots were incubated with indicated antibodies shaking for 2 h, then overnight at 4 °C. Then the blots were washed four times with TBST buffer, and then incubated with secondary antibodies for 30 min at room temperature.” left out
Cells were incubated with DMSO or AZ304 for 75 min and p-ERK levels were determined using a p-ERK antibody based ELISA. […] Cells were incubated with DMSO or AZ304 (±EGF) for 75 min and p-ERK levels were determined using a p-ERK antibody based ELISA. […]

[1] = tested on: RKO, HT-29, DiFi and Caco-2 cells; assay: EdU incorporation assay; format: cell-based, human; conditions: four CRC cell lines, 24 h
Method: Selected colorectal cancer cells were seeded into 96-well plates (2000–5000 cells per well). After incubation for 24 h, the cells were pretreated with DMSO or AZ304 for 24 h. Then 50 μM of 5-ethynyl-2′-deoxyuridine (EdU, Ribobio, Guangzhou, China) was added to each well and the cells were incubated at 37 °C for 2 h before being fixed with 4% formaldehyde for 30 min and incubated with 2 mg/ml glycine for 5 min. After being washed with PBS for five times, the cells were reacted with 100 μL of 1 × Apollo reaction cocktail for 30 min. Afterwards, the 1 × Hoechst 33342 (5 μg/mL) was used to stain the nuclei.
Two V600E mutant BRAF cell lines (RKO, HT-29) and two wild-type BRAF cell lines (DiFi, Caco-2) were treated with DMSO or increasing concentrations of AZ304 (0, 0.1, 1, 10, 100 μM), for 48 h (a) and 72 h (b). Viable cells were determined by MTT assay. c EdU incorporation assay. Four cells lines from (a) were treated with DMSO or indicated AZ304 for 24 h, followed by incubation with EdU and Hoechst in sequence. […] Expression levels of phosphorylation ERK were analysed by Western blot. e BRAF mutant cell line RKO, and BRAF wild type cell line Caco-2 were treated with DMSO or 2 uM AZ304 for the indicated times. Expression levels of phosphorylation ERK were analysed by Western blot. […] Cell viability was determined by MTT assay

[2] = tested on: RKO, HT-29, DiFi and Caco-2 cells; assay: Western blot analysis in selected CRC cell lines; format: cell-based, human; conditions: four CRC cell lines
Method: as §2
Two V600E mutant BRAF cell lines (RKO, HT-29) and two wild-type BRAF cell lines (DiFi, Caco-2) were treated with DMSO or increasing concentrations of AZ304 (0, 0.1, 1, 10, 100 μM), for 48 h (a) and 72 h (b). Viable cells were determined by MTT assay. c EdU incorporation assay. Four cells lines from (a) were treated with DMSO or indicated AZ304 for 24 h, followed by incubation with EdU and Hoechst in sequence. Hoechst 33342 (blue) and EdU (red) represent cell nuclei and nuclei of proliferative cells, respectively. The percentages of the EdU-positive cells are presented (right). Student’s t-tests were used for statistical analyses. Data are plotted as mean ± SD. *P < 0.05 vs. control; **P < 0.01 vs. control. d These four cells lines from (a) were treated with DMSO or 2 uM AZ304 for 6 h. Expression levels of phosphorylation ERK were analysed by Western blot. e BRAF mutant cell line RKO, and BRAF wild type cell line Caco-2 were treated with DMSO or 2 uM AZ304 for the indicated times. Expression levels of phosphorylation ERK were analysed by Western blot. […] Cell viability was determined by MTT assay

[3] = 2 μM AZ304, 10 μg/ml Cetuximab or combination, 36 h

Sequence of JAK2 (O60674 whole entry, species assumed): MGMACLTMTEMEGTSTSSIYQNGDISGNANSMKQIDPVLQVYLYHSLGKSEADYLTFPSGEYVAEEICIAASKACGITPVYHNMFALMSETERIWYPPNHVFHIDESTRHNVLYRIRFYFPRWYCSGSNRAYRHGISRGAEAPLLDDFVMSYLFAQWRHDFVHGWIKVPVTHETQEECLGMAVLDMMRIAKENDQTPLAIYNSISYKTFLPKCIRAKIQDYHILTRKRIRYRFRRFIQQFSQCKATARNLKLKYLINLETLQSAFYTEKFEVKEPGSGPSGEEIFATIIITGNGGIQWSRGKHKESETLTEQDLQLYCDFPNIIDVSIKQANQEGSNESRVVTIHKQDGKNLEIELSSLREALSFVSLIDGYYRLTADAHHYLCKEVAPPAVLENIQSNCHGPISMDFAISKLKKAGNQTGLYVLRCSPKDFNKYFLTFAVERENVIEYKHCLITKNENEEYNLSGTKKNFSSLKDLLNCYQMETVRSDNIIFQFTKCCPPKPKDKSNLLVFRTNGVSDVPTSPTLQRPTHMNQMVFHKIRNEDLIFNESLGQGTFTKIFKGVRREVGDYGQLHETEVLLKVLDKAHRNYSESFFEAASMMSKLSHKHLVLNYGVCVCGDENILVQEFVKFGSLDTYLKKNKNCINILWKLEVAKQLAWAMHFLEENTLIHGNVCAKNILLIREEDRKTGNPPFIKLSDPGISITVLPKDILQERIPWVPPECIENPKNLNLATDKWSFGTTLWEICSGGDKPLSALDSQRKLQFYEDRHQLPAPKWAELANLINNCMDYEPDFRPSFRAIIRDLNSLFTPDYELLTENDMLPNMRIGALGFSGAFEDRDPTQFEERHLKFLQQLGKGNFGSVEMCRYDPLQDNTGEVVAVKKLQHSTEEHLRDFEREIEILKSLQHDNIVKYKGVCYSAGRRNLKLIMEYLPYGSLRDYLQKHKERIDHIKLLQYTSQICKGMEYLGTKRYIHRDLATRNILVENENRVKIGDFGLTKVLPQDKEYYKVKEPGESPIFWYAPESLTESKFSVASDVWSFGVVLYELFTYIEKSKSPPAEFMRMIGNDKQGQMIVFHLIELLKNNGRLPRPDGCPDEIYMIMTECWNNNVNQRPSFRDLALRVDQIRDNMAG
Sequence of BRAF (P15056 457-717 limits assumed): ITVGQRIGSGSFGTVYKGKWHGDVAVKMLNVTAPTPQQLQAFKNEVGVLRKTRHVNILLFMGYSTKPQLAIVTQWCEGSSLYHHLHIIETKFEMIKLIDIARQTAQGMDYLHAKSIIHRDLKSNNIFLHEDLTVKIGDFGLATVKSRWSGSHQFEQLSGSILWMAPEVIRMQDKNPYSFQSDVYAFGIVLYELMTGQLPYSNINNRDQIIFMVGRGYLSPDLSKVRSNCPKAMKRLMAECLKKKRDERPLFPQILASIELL
Sequence of CSF1R (P07333 20-972, species assumed): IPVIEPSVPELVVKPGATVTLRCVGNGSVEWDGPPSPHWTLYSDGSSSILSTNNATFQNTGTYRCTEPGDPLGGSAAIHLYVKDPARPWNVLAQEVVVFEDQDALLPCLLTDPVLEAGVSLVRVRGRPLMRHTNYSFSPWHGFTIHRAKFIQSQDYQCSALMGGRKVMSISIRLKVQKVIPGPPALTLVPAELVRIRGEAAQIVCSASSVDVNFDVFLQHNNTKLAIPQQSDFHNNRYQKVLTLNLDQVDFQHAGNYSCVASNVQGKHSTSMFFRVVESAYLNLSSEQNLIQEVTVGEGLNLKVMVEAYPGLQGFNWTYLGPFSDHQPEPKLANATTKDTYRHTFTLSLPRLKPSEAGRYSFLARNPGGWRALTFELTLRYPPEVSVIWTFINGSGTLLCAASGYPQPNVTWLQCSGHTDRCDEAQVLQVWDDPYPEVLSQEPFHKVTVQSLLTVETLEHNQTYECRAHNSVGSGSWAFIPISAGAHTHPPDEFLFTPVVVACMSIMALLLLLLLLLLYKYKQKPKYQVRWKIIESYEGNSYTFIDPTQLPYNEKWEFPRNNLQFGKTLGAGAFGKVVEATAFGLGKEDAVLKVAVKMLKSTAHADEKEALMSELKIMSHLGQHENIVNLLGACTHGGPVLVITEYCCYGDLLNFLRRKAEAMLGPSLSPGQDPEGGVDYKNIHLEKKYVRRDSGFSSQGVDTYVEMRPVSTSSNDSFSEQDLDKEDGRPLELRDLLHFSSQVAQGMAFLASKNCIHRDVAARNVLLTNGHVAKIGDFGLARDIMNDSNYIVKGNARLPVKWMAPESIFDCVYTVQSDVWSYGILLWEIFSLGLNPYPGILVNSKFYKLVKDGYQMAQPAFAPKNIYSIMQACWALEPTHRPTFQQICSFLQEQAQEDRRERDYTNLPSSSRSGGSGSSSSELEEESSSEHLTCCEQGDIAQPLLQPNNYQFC
Sequence of MAP3K7 (O43318 whole entry, species assumed): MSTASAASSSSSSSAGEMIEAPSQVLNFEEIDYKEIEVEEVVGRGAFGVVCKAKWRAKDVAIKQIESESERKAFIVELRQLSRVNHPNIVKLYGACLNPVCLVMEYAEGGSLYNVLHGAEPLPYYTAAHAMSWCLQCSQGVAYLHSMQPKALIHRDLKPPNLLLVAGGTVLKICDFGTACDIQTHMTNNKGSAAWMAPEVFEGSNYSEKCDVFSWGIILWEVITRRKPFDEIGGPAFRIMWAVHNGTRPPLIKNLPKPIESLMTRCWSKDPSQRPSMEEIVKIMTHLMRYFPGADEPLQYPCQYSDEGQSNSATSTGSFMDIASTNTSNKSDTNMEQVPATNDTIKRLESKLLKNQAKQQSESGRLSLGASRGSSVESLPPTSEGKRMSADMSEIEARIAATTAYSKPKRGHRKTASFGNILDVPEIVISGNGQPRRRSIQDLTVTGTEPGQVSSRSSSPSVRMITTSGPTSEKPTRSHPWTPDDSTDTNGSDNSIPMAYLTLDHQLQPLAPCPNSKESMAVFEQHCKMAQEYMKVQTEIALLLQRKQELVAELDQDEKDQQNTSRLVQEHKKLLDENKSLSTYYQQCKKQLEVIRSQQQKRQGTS
Sequence of MAP3K7 (Q15750 whole entry partner, species assumed): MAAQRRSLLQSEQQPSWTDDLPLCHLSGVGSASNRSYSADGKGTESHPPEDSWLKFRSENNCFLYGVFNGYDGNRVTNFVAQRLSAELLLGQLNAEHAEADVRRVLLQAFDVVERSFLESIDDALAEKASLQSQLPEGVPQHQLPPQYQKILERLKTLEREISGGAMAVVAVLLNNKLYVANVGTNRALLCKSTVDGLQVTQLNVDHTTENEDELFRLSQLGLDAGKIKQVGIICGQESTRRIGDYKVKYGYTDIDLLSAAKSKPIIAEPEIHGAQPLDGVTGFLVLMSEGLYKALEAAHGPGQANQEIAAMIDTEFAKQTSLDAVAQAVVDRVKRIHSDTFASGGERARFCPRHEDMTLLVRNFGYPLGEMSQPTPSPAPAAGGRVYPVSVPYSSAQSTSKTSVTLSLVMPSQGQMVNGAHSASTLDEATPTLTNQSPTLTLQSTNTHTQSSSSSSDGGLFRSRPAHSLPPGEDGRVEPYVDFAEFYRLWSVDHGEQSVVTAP
Sequence of BRAFV600E (P15056 457-717 V600E limits assumed): as the sequence (P15056 457-717 limits assumed) above, with V144E counted along it

COc1ccc2c(Nc3cc(NC(=O)c4cccc(C(C)(C)C#N)c4)ccc3C)ncnc2c1 [AZ304]
pIC50 (BRAF): 7.10
pIC50 (BRAFV600E): 7.42
pIC50 (CSF1R): 7.46
pIC50 (JAK2): < 5.00
pIC50 (MAP3K7): 5.19
pEC50 (p-ERK in SK-MEL-31 cells; SK-MEL-31 (wild type BRAF melanoma), 75 min, without EGF): 7.22
pEC50 (p-ERK in SK-MEL-31 cells; SK-MEL-31, 75 min, with EGF stimulation): 7.28
effect on p-p38 (A549 cells; A549 (RAS MT), 75 min): potently inhibited p-p38
effect on p-ERK (A549 cells; A549 (wild type BRAF, RAS MT), 75 min, 0.1, 1, 10 and 100 fold of A375 p-ERK EC50): concentration dependent reduction of p-ERK
effect on p-p38 (MC-F7 cells; 75 min): potently inhibited p-p38
effect on p-ERK (MC-F7 cells; 75 min, 0.1, 1, 10 and 100 fold of A375 p-ERK EC50): concentration dependent reduction of p-ERK
effect on p-p38 (A375 cells): potently inhibited p-p38
DNA replication (EdU-positive cells) [1]: suppressed DNA replication in CRC cells at all concentrations
BRAF, p-ERK, p-AKT and p-mTOR levels [2, 3]: decreased
EGFR phosphorylation (p-EGFR) [2, 3]: increased
phosphorylated SRC and STAT3 [2, 3]: relatively reduced expression levels
cleaved caspase-9, caspase-3 and PARP ([2]; 2 μM AZ304, 10 μg/ml Cetuximab or combination, 48 h): overtly increased levels
p-ERK levels ([2]; 2 uM AZ304, 6 h): reduced p-ERK levels in all four CRC cell lines
